Measurements reported in paper PMC5654082 (Malaria Journal, 2017).
Structures can show the parent of a compound that is named as a salt.

What was measured:
human OCT1 = target: T1, human OCT1 (Homo sapiens, UniProt O15245); assay: OCT1-mediated cellular import in transduced HEK293 cells (LC-MS/MS); assay type: cell-based
T1 construct: host or cells: HEK293, baculovirus transduction (CMV promoter), transient
T1 sequence (O15245 1-554): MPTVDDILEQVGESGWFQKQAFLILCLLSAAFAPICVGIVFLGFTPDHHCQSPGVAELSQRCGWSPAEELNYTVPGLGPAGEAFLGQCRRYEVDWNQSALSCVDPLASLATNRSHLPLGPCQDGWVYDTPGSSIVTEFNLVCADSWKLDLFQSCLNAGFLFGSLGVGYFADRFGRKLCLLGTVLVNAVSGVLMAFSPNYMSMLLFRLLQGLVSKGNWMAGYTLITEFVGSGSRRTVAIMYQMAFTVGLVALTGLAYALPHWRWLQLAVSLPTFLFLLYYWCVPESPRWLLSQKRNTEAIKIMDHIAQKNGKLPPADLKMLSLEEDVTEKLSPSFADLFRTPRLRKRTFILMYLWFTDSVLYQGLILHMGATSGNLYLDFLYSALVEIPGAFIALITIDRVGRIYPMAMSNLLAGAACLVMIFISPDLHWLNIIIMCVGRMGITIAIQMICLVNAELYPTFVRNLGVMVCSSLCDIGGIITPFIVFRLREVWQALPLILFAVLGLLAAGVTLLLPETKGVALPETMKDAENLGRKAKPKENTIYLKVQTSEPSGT
Method: (§1) HEK293 cells were modified to transiently express (a combination of) human OCT1, OCT2, MATE1, MATE2-K, or eYFP. Briefly, cDNA of the respective genes was cloned downstream of a CMV promoter into a baculovirus, of which passage three was used to transduce HEK293 cells. These cells were seeded in poly-D-lysine coated 24- or 96-wells plates and grown in a 37 °C incubator at 5% CO2. Growth was initiated at ~ 25% confluency using 375 or 125 μL cell and complete medium (DMEM + GlutaMAX™-I supplemented with 10% fetal bovine serum) suspension per well, respectively. After 24 h, cells were transduced with 30 µL virus (10 µL virus + 20 µL complete medium in case of 96-wells plates) or 2 × 15 µL virus for cells that required simultaneous expression of two transporters. Finally, 195 µL sodium butyrate (45 µL for 96-wells plates) was added to a final concentration of 2 mM to enhance protein expression.
HEK293 cells were seeded in 24-wells poly-D-lysine coated plates and transduced the subsequent day with OCT1 or OCT2 as described above. Three days following transduction, OCT1- or OCT2-mediated uptake of ten anti-malarials (AMO, ART, ATO, CQ, DHA, LUM, MQ, PQ, PG, and QN) was performed. NMQ served as a positive substrate for both OCT1 and OCT2 import. In short, cells were washed with 400 µL 37 °C HBSS-HEPES buffer followed by adding 150 µL HBSS buffer with 10 µM anti-malarial or NMQ to each well. After incubation for 15 min at 37 °C, import was stopped by washing with 400 µL ice-cold HBSS-HEPES buffer supplemented with 0.5% BSA. Following a second wash with 400 µL ice-cold HBSS-HEPES buffer, cells were lysed with 200 µL 50% (v/v) MeOH and 0.1% (v/v) formic acid (HCOOH) in water and samples were sent for quantification by mass spectrometry analysis (see “LC–MS/MS quantification of anti-malarials” section). […]
(§2) The affinity (KM) and maximum transport rate (Vmax) for OCT1 and OCT2 of PG were determined by analysing concentration-dependent uptake data from three independent experiments.
(§3) Import and export of PG and cycloguanil (CG) was assessed by single and double transduced HEK293 cells. […] Following the same procedure as for the cellular import assay described above, the import of 100 µM PG and CG was measured after 5 min incubation and data was plotted as mean pmol/mg/min ± SEM. […] Significant reduction in uptake (i.e. export by MATEs) was determined using ln transformation and a one-way repeated measures ANOVA with Dunnet’s post test.
Anti-malarial concentration in the cell lysates was quantified using an LC–MS/MS system consisting of a UPLC, a binary solvent manager, a vacuum degasser and an autosampler, coupled to a Xevo TQ-S micro triple quadrupole mass spectrometer. […]

human OCT2 = target: T2, human OCT2 (Homo sapiens, UniProt O15244); assay: OCT2-mediated cellular import in transduced HEK293 cells (LC-MS/MS); assay type: cell-based
T2 construct: host or cells: HEK293, baculovirus transduction (CMV promoter), transient
T2 sequence (O15244 1-555): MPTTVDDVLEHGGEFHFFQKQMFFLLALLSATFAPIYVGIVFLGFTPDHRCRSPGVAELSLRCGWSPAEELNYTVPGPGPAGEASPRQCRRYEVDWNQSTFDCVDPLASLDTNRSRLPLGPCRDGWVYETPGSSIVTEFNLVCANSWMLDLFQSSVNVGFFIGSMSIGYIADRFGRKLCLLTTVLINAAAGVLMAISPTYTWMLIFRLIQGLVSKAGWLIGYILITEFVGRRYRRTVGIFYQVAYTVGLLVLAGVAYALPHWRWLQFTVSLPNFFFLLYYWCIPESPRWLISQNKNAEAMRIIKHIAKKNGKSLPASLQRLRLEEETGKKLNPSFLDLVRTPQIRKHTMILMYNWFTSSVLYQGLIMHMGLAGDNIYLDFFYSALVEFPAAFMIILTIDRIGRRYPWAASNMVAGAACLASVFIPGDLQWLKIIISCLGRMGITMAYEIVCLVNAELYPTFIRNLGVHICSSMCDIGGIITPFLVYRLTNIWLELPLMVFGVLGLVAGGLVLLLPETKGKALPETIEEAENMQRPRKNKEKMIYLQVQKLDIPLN
Method: as §1
HEK293 cells were seeded in 24-wells poly-D-lysine coated plates and transduced the subsequent day with OCT1 or OCT2 as described above. Three days following transduction, OCT1- or OCT2-mediated uptake of ten anti-malarials (AMO, ART, ATO, CQ, DHA, LUM, MQ, PQ, PG, and QN) was performed. […] Following a second wash with 400 µL ice-cold HBSS-HEPES buffer, cells were lysed with 200 µL 50% (v/v) MeOH and 0.1% (v/v) formic acid (HCOOH) in water and samples were sent for quantification by mass spectrometry analysis (see “LC–MS/MS quantification of anti-malarials” section). […]
as §2
as §3, with “test. […]” for “test.”

| SMILES | Uptake by OCT1 (human OCT1; 100 µM, 5 min) [pmol/mg/min] | Uptake by OCT2 (human OCT2; 100 µM, 5 min) [pmol/mg/min] | Uptake by OCT1, percentage of mock-transduced control (human OCT1; 10 µM, 15 min, 37 °C) [%] | Uptake, percentage of eYFP control cells (human OCT1; cells co-transduced with eYFP and OCT1, 1 µM, 1 min, pH 7.4) [%] | Uptake by OCT2, percentage of mock-transduced control (human OCT2; 10 µM, 15 min, 37 °C) [%] |
| --- | --- | --- | --- | --- | --- |
| CC1(C)N=C(N)N=C(N)N1c1ccc(Cl)cc1 [Cycloguanil] | 139 ± 9 | 118 ± 18 | – | – | – |
| [H]/N=C(\N/C(=N/[H])Nc1ccc(Cl)cc1)NC(C)C [Proguanil, proguanil hydrochloride] | – | – | 301 ± 25 | 850 ± 60 | 207 ± 17 |
